Assay results published in patent US20020133009A1, “Method for opening potassium channels” (priority 2001, published 2002).

How the values were obtained:
maxi-K+ channels [1] = target: T1, maxi-K+ channels (Bos taurus, UniProt Q28204); assay: Patch clamp whole-cell current measurements in cultured bovine trabecular meshwork (TM) cells; assay type: cell-based
T1 construct: endogenous in cells; host or cells: cultured bovine trabecular meshwork (TM) cells
Protocol: (§1) Patch clamp experiments of cultured human and bovine trabecular meshwork (TM) cells are performed. Nystatin in a pipette is used to obtain perforated patches. Whole-cell current measurements in the cells are performed. Voltages from −80mV to +120mV with 200-msec duration each are applied through the patch pipette, starting from a holding potential of −40mV. After each step, the voltage is returned to a holding potential of […] for 200-msec. Currents are continuously sampled at 100 Hz throughout the duration of the protocol.

maxi-K+ channels [2] = target: T2, maxi-K+ channels (Homo sapiens, UniProt Q12791); assay: Patch clamp whole-cell current measurements in cultured human trabecular meshwork (TM) cells; assay type: cell-based
T2 construct: endogenous in cells; host or cells: cultured human trabecular meshwork (TM) cells
T2 sequence (Q12791 whole entry): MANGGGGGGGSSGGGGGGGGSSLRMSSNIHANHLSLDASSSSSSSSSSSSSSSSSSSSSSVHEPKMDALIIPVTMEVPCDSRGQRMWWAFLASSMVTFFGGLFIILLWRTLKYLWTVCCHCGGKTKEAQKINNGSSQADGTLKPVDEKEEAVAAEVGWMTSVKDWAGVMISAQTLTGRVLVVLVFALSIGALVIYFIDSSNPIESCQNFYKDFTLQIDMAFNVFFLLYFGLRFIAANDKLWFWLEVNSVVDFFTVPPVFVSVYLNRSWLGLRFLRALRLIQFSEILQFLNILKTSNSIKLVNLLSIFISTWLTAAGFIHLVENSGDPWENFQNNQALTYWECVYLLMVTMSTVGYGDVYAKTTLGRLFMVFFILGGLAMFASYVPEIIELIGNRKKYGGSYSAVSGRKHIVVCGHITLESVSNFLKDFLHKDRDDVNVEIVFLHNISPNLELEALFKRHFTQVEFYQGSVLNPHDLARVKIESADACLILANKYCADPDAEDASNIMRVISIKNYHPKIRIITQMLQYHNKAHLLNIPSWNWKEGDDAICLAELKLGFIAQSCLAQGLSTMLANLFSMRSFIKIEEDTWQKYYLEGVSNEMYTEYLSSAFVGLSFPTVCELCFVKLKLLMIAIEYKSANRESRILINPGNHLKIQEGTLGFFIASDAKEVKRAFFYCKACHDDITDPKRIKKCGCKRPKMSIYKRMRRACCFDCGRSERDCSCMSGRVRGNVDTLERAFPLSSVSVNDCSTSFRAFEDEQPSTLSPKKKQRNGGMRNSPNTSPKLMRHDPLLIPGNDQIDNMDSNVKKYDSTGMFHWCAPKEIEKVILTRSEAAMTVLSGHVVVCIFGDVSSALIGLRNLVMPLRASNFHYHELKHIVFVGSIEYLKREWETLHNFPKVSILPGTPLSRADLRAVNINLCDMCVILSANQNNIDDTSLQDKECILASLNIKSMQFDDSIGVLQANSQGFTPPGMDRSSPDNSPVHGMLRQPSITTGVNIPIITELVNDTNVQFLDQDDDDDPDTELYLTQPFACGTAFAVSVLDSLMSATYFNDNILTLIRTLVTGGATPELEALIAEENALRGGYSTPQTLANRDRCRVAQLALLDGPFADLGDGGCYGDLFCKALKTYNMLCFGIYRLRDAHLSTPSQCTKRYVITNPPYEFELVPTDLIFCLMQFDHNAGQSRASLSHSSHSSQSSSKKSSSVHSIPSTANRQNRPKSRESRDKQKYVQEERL
Protocol: as §1

T1 sequence (Q28204 whole entry): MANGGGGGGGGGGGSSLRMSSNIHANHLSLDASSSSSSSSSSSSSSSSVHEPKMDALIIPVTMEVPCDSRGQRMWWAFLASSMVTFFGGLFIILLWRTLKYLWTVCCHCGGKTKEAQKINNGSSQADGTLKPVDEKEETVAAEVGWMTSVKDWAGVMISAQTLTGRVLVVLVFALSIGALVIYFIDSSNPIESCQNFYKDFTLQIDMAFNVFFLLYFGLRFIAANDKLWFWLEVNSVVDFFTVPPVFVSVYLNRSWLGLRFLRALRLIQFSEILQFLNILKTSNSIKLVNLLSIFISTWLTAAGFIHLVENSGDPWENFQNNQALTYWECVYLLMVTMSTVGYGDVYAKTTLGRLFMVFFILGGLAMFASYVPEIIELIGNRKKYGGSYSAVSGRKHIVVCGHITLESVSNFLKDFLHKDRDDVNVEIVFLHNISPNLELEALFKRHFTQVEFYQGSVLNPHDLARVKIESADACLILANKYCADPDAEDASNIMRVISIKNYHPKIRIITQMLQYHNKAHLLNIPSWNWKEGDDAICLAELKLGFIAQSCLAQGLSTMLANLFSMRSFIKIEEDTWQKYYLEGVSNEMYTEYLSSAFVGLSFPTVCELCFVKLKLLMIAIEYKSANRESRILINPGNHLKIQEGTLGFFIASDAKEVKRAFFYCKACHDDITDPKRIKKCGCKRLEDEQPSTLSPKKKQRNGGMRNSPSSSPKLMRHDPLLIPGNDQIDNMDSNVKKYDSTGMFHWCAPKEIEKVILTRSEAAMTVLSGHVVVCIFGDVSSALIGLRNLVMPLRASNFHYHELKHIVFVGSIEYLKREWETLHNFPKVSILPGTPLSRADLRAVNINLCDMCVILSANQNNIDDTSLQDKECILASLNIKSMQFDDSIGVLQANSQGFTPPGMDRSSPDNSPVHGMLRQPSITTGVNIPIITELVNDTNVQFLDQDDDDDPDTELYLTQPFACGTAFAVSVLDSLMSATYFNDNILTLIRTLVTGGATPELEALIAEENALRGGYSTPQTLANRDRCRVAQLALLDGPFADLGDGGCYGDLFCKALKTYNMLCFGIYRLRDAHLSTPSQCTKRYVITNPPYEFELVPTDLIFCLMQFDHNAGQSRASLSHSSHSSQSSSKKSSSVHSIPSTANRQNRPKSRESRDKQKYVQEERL

Compound	effect on unoprostone isopropyl-induced current (maxi-K+ channels [1]; TM cells, species not given)	total current inhibited by iberiotoxin, % of the control (maxi-K+ channels [1]; bovine trabecular meshwork cells incubated in acetylcholine, after unoprostone isopropyl stimulation)	overall current of the cells (maxi-K+ channels [1]; bovine TM cells incubated in either acetylcholine or endothelin)	total current, % of the control (maxi-K+ channels [1]; bovine trabecular meshwork cells incubated in acetylcholine, 10^-5 M unoprostone isopropyl, p<0.01)	maxi-K+ channel opening (maxi-K+ channels [1]; conclusion from iberiotoxin block, TM cells, species not given)	overall current of the cells (maxi-K+ channels [2]; human TM cells incubated in either acetylcholine or endothelin)	overall current (maxi-K+ channels [2]; human trabecular meshwork cells incubated in acetylcholine)	overall current (maxi-K+ channels [2]; human trabecular meshwork cells incubated in the presence of endothelin)
iberiotoxin: highly specific inhibitor of maxi-K+ channels (QFTDVDCSVSKECWSVCKDLFGVDRGKCMGKKCRCYQ; UniProt P24663 1-37, looked up) [reference compound]	totally reduced	approximately 40%	–	–	–	–	–	–
CCCCCCCC(=O)CC[C@@H]1[C@@H](C/C=C\CCCC(=O)OC(C)C)[C@@H](O)C[C@H]1O [unoprostone isopropyl, [1R-[1α(Z),2β,3a,5a]]-7-[3,5-dihydroxy-2-(3-oxodecyl)cyclopentyl]-5-heptenoic acid isopropyl ester]	–	–	stimulated the overall current	approximately 180%	opens maxi-K+ channels	stimulated the overall current	stimulates the overall current	induces an increase in the overall current
